The subject of one assay is E. coli #311. Briefly: In vivo activity (oral, iv; ED50) against E. coli in mice. The following applies: Escherichia coli. From the text:
. […] Smith and E. Coli #311 in mammals.
Results of the tests (MIC, oral and IV) are list in Table 7.

The test system of a further assay is Staph. The assay is described as follows: Range of MIC for Staph. strains, including MRSA. Conditions: Staphylococcus aureus.
Assay [1] has as its system Staph. aureus Smith. The assay is described as follows: In vitro activity (MIC) against Staph. aureus Smith. Format: cell-based. The following applies: Staphylococcus aureus.
The subject of assay [2] is E. coli. Briefly: Range of MIC for E. coli strains. Conditions: Escherichia coli.
Assay [3] deals with Staph. aureus Smith. The assay is described as follows: In vivo activity (oral, iv; ED50) against Staph. aureus Smith in mice.
Experimental: Representative examples of compounds of Formula I were tested for the oral efficacy using S. aureus Smith in mice.
In assay [4] the test system is E. coli. The assay is described as follows: In vitro activity (MIC) against E. coli (Table 7). The following applies: Escherichia coli. Format: cell-based.
Where [5] appears, read: single intravenous dose (SIV), read-out: ED50 E. coli #311 SIV.
The mark [6] stands for this setting: single oral dose (SOD), read-out: ED50 E. coli #311 SOD.
The mark [7] stands for this setting: MRSA, read-out: Range of MIC, Staph (Mouse Serum).
The mark [8] stands for this setting: MRSA, read-out: Range of MIC, Staph (Water).
Setting [9] is: MRSA, read-out: Range of MIC, Staph. (mouse serum).
The mark [10] stands for this setting: MRSA, read-out: Range of MIC, Staph. (water).
The mark [11] stands for this setting: read-out: Minimum inhibitory concentration (MIC), Staph (Human Serum).
Setting [12] is: read-out: Minimum inhibitory concentration (MIC), Staph (Water).
[13] abbreviates: 20 h, read-out: Range of MIC, E. coli (Mouse Serum).
The mark [14] stands for this setting: read-out: Minimum inhibitory concentration (MIC), E. coli (Human Serum).
Where [15] appears, read: read-out: Range of MIC, E. coli (mouse serum).
The mark [16] stands for this setting: Staphylococcus aureus, in Mus musculus, iv, read-out: ED50 SIV (Staph aureus Smith).
Setting [17] is: Staphylococcus aureus, in Mus musculus, po, read-out: ED50 SOD (Staph aureus Smith).
[18] abbreviates: Staphylococcus aureus, in Mus musculus, po, read-out: ED50 Staph Smith SOD.
Where [19] appears, read: iv, read-out: ED50 Staph Smith SIV.
[20] abbreviates: read-out: Range of MIC, E. coli (Water).
Where [21] appears, read: MRSA, read-out: Minimum inhibitory concentration (MIC), Staph. (mouse serum).
The mark [22] stands for this setting: MRSA, read-out: Minimum inhibitory concentration (MIC), Staph. (water).
The mark [23] stands for this setting: read-out: Minimum inhibitory concentration (MIC), E. coli (mouse serum).
Setting [24] is: read-out: Minimum inhibitory concentration (MIC), E. coli (water).

As a reminder, the ED50 is the midpoint of the dose-response relation.

Converted amounts (≈) assume the structure as drawn. Where two headings read alike, the source gives them in different places.

Turning to `CCCCCCC(=O)OCOC(=O)N(CCC)CC(=O)Nc1cc(N(C)C)c2c(c1O)C(=O)C1=C(O)[C@]3(O)C(=O)C(C(N)=O)=C(O)[C@@H](N(C)C)[C@@H]3C[C@@H]1C2` [Example 19, ({[(2-{[(5aR,6aS,7S,10aS)-9-(aminocarbonyl)-4,7-bis(dimethylamino)-1,8,10a,11-tetrahydroxy-10,12-dioxo-5,5a,6,6a,7,10,10a,12-octahydrotetracen-2-yl]amino}-2-oxoethyl)(propyl)amino]carbonyl}oxy)methyl heptanoate], the ED50 with E. coli #311 (setting [5]) was greater than 2 mg/kg; in the assay on E. coli #311 (setting [6]), greater than 32 mg/kg; with Staph. aureus Smith [3] (setting [16]), 0.31 mg/kg; in the assay on Staph. aureus Smith [3] (setting [17]), 8.05 mg/kg; in the assay on Staph. aureus Smith [3] (setting [18]), 8.05 mg/kg; with Staph. aureus Smith [3] (setting [19]), 0.31 mg/kg. For the same compound, the MIC lay in the range of 0.5 to 4 µg/mL (≈ 0.66 to 5.28 µM) in the assay on Staph. (setting [7]); 1 to 8 µg/mL (≈ 1.32 to 10.6 µM) in the assay on Staph. (setting [8]); 0.5 to 4 µg/mL (≈ 0.66 to 5.28 µM) with Staph. (setting [9]); 1 to 8 µg/mL (≈ 1.32 to 10.6 µM) in the assay with Staph. (setting [10]); 0.12 to 1 µg/mL (≈ 0.158 to 1.32 µM) in the assay with Staph. (setting [11]); 0.25 to 4 µg/mL (≈ 0.33 to 5.28 µM) in the assay with Staph. (setting [12]). The MIC was 1 µg/mL (≈ 1.32 µM) with Staph. aureus Smith [1] (Table 8), 0.5 to 2 µg/mL (≈ 0.66 to 2.64 µM) with E. coli [2] (setting [13]), 8 to 32 µg/mL (≈ 10.6 to 42.2 µM) in the assay with E. coli [2] (setting [14]) and 0.5 to 2 µg/mL (≈ 0.66 to 2.64 µM) with E. coli [2] (setting [15]).

Regarding `CCCN(CC(=O)Nc1cc(N(C)C)c2c(c1O)C(=O)C1=C(O)[C@]3(O)C(=O)C(C(N)=O)=C(O)[C@@H](N(C)C)[C@@H]3C[C@@H]1C2)C(=O)OCOC(=O)CC(C)(C)C` [Example 35, ({[(2-{[(5aR,6aS,7S,10aS)-9-(aminocarbonyl)-4,7-bis(dimethylamino)-1,8,10a,11-tetrahydroxy-10,12-dioxo-5,5a,6,6a,7,10,10a,12-octahydrotetracen-2-yl]amino}-2-oxoethyl)(propyl)amino]carbonyl}oxy)methyl 3,3-dimethylbutanoate], the MIC with Staph. (setting [7]) is 2 to 4 µg/mL (≈ 2.69 to 5.38 µM); in the assay with Staph. (setting [8]) it was 2 to 4 µg/mL (≈ 2.69 to 5.38 µM); in the assay with Staph. (setting [9]), 2 to 4 µg/mL (≈ 2.69 to 5.38 µM); with Staph. (setting [10]) it was 2 to 4 µg/mL (≈ 2.69 to 5.38 µM); against Staph. aureus Smith [1] (Table 8) it was 4 µg/mL (≈ 5.38 µM); with E. coli [2] (setting [13]), 4 to 8 µg/mL (≈ 5.38 to 10.8 µM). Moreover, the MIC in the assay on E. coli [2] (setting [20]) is 8 to 64 µg/mL (≈ 10.8 to 86 µM); with E. coli [2] (setting [15]) it was 4 to 8 µg/mL (≈ 5.38 to 10.8 µM); with E. coli [2] (read-out: Range of MIC, E. coli (water)), 8 to 64 µg/mL (≈ 10.8 to 86 µM). Further, the 50% effective dose (ED50) with Staph. aureus Smith [3] (setting [16]) came to 0.43 mg/kg; in the assay with Staph. aureus Smith [3] (setting [17]), 3.5 mg/kg; in the assay with Staph. aureus Smith [3] (setting [18]) it was 3.5 mg/kg; in the assay with Staph. aureus Smith [3] (setting [19]), 0.43 mg/kg.

In the case of `CCCCN(CC(=O)Nc1cc(N(C)C)c2c(c1O)C(=O)C1=C(O)[C@]3(O)C(=O)C(C(N)=O)=C(O)[C@@H](N(C)C)[C@@H]3C[C@@H]1C2)C(=O)OCOC(=O)CC(C)(C)C` [Example 36, ({[(2-{[(5aR,6aS,7S,10aS)-9-(aminocarbonyl)-4,7-bis(dimethylamino)-1,8,10a,11-tetrahydroxy-10,12-dioxo-5,5a,6,6a,7,10,10a,12-octahydrotetracen-2-yl]amino}-2-oxoethyl)(butyl)amino]carbonyl}oxy)methyl 3,3-dimethylbutanoate], the MIC with Staph. (setting [21]) was 2 to 4 µg/mL (≈ 2.64 to 5.28 µM); with Staph. (setting [22]), 4 to 16 µg/mL (≈ 5.28 to 21.1 µM); in the assay on Staph. (setting [7]) it was 2 to 4 µg/mL (≈ 2.64 to 5.28 µM); in the assay on Staph. (setting [8]) it was 4 to 16 µg/mL (≈ 5.28 to 21.1 µM); in the assay with Staph. aureus Smith [1] (Table 8) it was 8 µg/mL (≈ 10.6 µM); in the assay with E. coli [2] (setting [13]), 2 to 8 µg/mL (≈ 2.64 to 10.6 µM). The MIC in the assay on E. coli [2] (setting [23]) was in the range of 2 to 8 µg/mL (≈ 2.64 to 10.6 µM); in the assay with E. coli [2] (setting [24]), 8 to 32 µg/mL (≈ 10.6 to 42.2 µM); in the assay with E. coli [2] (setting [20]), 8 to 32 µg/mL (≈ 10.6 to 42.2 µM). In addition, the ED50 with Staph. aureus Smith [3] (setting [16]) turned out to be 0.84 mg/kg; with Staph. aureus Smith [3] (setting [17]), 5.15 mg/kg; with Staph. aureus Smith [3] (setting [18]) it was 5.15 mg/kg; in the assay on Staph. aureus Smith [3] (setting [19]) it was 0.84 mg/kg.

Regarding `CCCCN(CC(=O)Nc1cc(N(C)C)c2c(c1O)C(=O)C1=C(O)[C@]3(O)C(=O)C(C(N)=O)=C(O)[C@@H](N(C)C)[C@@H]3C[C@@H]1C2)C(=O)OCOC(=O)CC1CCCC1` [Example 38, ({[(2-{[(5aR,6aS,7S,10aS)-9-(aminocarbonyl)-4,7-bis(dimethylamino)-1,8,10a,11-tetrahydroxy-10,12-dioxo-5,5a,6,6a,7,10,10a,12-octahydrotetracen-2-yl]amino}-2-oxoethyl)(butyl)amino]carbonyl}oxy)methyl cyclopentylacetate], the MIC in the assay on Staph. (setting [21]) is 0.5 to 2 µg/mL (≈ 0.649 to 2.6 µM); with Staph. (setting [22]), 1 to 8 µg/mL (≈ 1.3 to 10.4 µM); in the assay on Staph. (setting [7]), 0.5 to 2 µg/mL (≈ 0.649 to 2.6 µM); in the assay with Staph. (setting [8]) it was 1 to 8 µg/mL (≈ 1.3 to 10.4 µM); with Staph. aureus Smith [1] (Table 8) it was 2 µg/mL (≈ 2.6 µM); in the assay on E. coli [2] (setting [13]), 0.5 to 4 µg/mL (≈ 0.649 to 5.2 µM). Further, the MIC with E. coli [2] (setting [23]) was 0.5 to 4 µg/mL (≈ 0.649 to 5.2 µM). Moreover, the ED50 with Staph. aureus Smith [3] (setting [16]) is 0.6 mg/kg; with Staph. aureus Smith [3] (setting [17]), 5.3 mg/kg; in the assay on Staph. aureus Smith [3] (setting [18]) it was 5.3 mg/kg; with Staph. aureus Smith [3] (setting [19]), 0.6 mg/kg.

For the compound `CCCN(CC(=O)Nc1cc(N(C)C)c2c(c1O)C(=O)C1=C(O)[C@]3(O)C(=O)C(C(N)=O)=C(O)[C@@H](N(C)C)[C@@H]3C[C@@H]1C2)C(=O)OCOC(=O)CC1CCCC1` [Example 40, ({[(2-{[(5aR,6aS,7S,10aS)-9-(aminocarbonyl)-4,7-bis(dimethylamino)-1,8,10a,11-tetrahydroxy-10,12-dioxo-5,5a,6,6a,7,10,10a,12-octahydrotetracen-2-yl]amino}-2-oxoethyl)(propyl)amino]carbonyl}oxy)methyl cyclopentylacetate], the MIC in the assay on Staph. (setting [7]) was 0.25 to 2 µg/mL (≈ 0.331 to 2.65 µM); in the assay with Staph. (setting [8]) it was 0.25 to 2 µg/mL (≈ 0.331 to 2.65 µM); in the assay on Staph. (setting [9]), 0.25 to 2 µg/mL (≈ 0.331 to 2.65 µM); with Staph. (setting [10]), 0.25 to 2 µg/mL (≈ 0.331 to 2.65 µM); against Staph. aureus Smith [1] (Table 8) it was 0.5 µg/mL (≈ 0.662 µM); in the assay on E. coli [2] (setting [13]), 1 to 2 µg/mL (≈ 1.32 to 2.65 µM). In the assay with E. coli [2] (setting [15]), the MIC was in the range of 1 to 2 µg/mL (≈ 1.32 to 2.65 µM). Besides, the ED50 in the assay on Staph. aureus Smith [3] (setting [16]) turned out to be 0.39 mg/kg; in the assay on Staph. aureus Smith [3] (setting [17]), 4.65 mg/kg; with Staph. aureus Smith [3] (setting [18]) it was 4.65 mg/kg; with Staph. aureus Smith [3] (setting [19]), 0.39 mg/kg.

For `CN(C)c1cc(NC(=O)CN(C(=O)OCOC(=O)CC2CCCC2)C(C)(C)C)c(O)c2c1C[C@H]1C[C@H]3[C@H](N(C)C)C(O)=C(C(N)=O)C(=O)[C@@]3(O)C(O)=C1C2=O` [Example 54, ({[(2-{[(5aR,6aS,7S,10aS)-9-(aminocarbonyl)-4,7-bis(dimethylamino)-1,8,10a,11-tetrahydroxy-10,12-dioxo-5,5a,6,6a,7,10,10a,12-octahydrotetracen-2-yl]amino}-2-oxoethyl)(tert-butyl)amino]carbonyl}oxy)methyl cyclopentylacetate], the ED50 in the assay on E. coli #311 (setting [5]) was 3.72 mg/kg; with E. coli #311 (single intravenous dose, mice, Table 7, read-out: ED50 SIV (E. coli)) it was 2.16 mg/kg; with E. coli #311 (setting [6]) it was greater than 32 mg/kg; in the assay with E. coli #311 (single oral dose, mice, Table 7, read-out: ED50 SOD (E. coli)), 29.2 mg/kg; in the assay on Staph. aureus Smith [3] (setting [16]), 0.83 mg/kg; in the assay on Staph. aureus Smith [3] (setting [17]), 8.4 mg/kg. Moreover, the ED50 is greater than 16 mg/kg with Staph. aureus Smith [3] (setting [18]) and 1.17 mg/kg in the assay on Staph. aureus Smith [3] (setting [19]). Moreover, the MIC in the assay with Staph. (setting [7]) was 0.5 to 2 µg/mL (≈ 0.649 to 2.6 µM); in the assay on Staph. (setting [8]), 1 to 4 µg/mL (≈ 1.3 to 5.2 µM); in the assay with Staph. (setting [11]), 0.5 to 2 µg/mL (≈ 0.649 to 2.6 µM); with Staph. (setting [12]) it was 1 to 4 µg/mL (≈ 1.3 to 5.2 µM); in the assay on E. coli [4] it was greater than 64 µg/mL; in the assay on Staph. aureus Smith [1] (Table 6) it was 0.5 µg/mL (≈ 0.649 µM). For the same compound, the MIC in the assay with E. coli [2] (setting [13]) is 0.5 to 1 µg/mL (≈ 0.649 to 1.3 µM); in the assay with E. coli [2] (setting [14]), 16 to 32 µg/mL (≈ 20.8 to 41.6 µM); with E. coli [2] (setting [24]) it was greater than 64 µg/mL; in the assay with E. coli [2] (setting [20]) it was greater than 64 µg/mL.

The values are drawn from patent US20070049564A1 (Wyeth, priority 2005, published 2007).
